Test results published in publication PMC4303309 (Biochemistry, 2014).

Target: DaCld (Dechloromonas aromatica (nom. nud.), UniProt Q47CX0)
Conditions: MCD as HOCl trap

Sequence of DaCld (Q47CX0 35-282 limits assumed): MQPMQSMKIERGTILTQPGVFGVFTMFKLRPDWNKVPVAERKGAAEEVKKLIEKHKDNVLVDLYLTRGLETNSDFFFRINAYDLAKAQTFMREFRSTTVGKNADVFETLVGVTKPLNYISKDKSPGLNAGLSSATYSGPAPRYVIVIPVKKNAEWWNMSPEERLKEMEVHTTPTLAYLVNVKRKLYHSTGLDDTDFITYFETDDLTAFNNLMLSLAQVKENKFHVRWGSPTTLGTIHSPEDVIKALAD

[O-][Cl+]O [chlorite]
reaction with chlorite in the presence of MCD (UV-visible): no MCD-trappable HOCl could be detected for DaCld under conditions similar to those used
